# Test results published in the kinase profiling compilation of Christmann-Franck et al. (2016).
# Assays:
# Assay in all cases: radiometric filter-binding kinase assay, Kinase HotSpot
# Details in all cases: compound 0.5 µM; ATP 10 µM
# [1] = target: MAPK10 (human) (UniProt P53779)
# [2] = target: ADRBK1 (human) (UniProt P25098)
# [3] = target: EPHB3 (human) (UniProt P54753)
# [4] = target: CLK1 (human) (UniProt P49759)
# [5] = target: MAPKAPK2 (human) (UniProt P49137)
# [6] = target: RPS6KA1 KD1 KD2 (human) (UniProt Q15418)
# [7] = target: PRKD3 (human) (UniProt O94806)
# [8] = target: CLK4 (human) (UniProt Q9HAZ1)
# Sequence of CLK4 (human) (Q9HAZ1 whole entry, looked up): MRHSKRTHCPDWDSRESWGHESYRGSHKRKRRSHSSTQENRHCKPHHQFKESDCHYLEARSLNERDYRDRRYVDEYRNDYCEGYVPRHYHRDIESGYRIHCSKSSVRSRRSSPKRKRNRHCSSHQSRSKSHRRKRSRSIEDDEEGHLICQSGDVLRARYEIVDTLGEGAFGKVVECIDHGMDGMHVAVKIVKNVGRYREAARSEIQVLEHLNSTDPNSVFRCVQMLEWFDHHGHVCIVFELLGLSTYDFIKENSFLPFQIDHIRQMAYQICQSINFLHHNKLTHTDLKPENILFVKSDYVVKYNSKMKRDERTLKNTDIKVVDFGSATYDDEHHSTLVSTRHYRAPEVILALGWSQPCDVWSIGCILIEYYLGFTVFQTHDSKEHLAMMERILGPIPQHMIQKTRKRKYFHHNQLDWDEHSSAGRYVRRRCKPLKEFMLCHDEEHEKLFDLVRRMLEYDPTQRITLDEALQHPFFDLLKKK
# [9] = target: IRAK4 (human) (UniProt Q9NWZ3)
# [10] = target: PRKCG (human) (UniProt P05129)
# [11] = target: PRKCE (human) (UniProt Q02156)
# [12] = target: CHUK (human) (UniProt O15111)
# [13] = target: NTRK1 (human) (UniProt P04629)
# [14] = target: TAOK1 (human) (UniProt Q7L7X3)
# [15] = target: CAMK2A (human) (UniProt Q9UQM7)
# [16] = target: MAP4K5 (human) (UniProt Q9Y4K4)
# [17] = system: PRKCQ (human), Q04759 [P330L]
# [18] = target: MAP3K7 TAB1 (human) (UniProt O43318+Q15750)
# [19] = target: KDR (human) (UniProt P35968)
# [20] = target: PRKCB2 (human) (UniProt P05771)
# [21] = target: MAP3K10 (human) (UniProt Q02779)
# [22] = target: RET (human) (UniProt P07949)
# [23] = target: AURKB (human) (UniProt Q96GD4)
# [24] = target: EPHA7 (human) (UniProt Q15375)
# [25] = target: YES1 (human) (UniProt P07947)
# [26] = target: SRPK1 (human) (UniProt Q96SB4)
# [27] = target: MAPKAPK3 (human) (UniProt Q16644)
# [28] = target: CDK2 CCNE1 (human) (UniProt P24941+P24864)
# Sequence of CDK2 CCNE1 (human) (P24864 whole entry, looked up, other chains not shown): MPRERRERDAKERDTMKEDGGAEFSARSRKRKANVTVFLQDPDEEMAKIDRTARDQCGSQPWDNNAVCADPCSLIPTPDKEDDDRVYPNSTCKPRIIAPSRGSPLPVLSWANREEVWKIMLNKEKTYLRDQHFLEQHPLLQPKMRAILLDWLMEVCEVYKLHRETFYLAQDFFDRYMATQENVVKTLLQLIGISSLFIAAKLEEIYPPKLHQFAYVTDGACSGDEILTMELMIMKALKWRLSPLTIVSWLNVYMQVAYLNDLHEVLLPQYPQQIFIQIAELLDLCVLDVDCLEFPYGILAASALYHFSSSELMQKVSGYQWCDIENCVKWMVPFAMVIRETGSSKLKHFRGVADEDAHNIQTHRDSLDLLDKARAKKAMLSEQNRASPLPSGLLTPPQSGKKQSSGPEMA
# [29] = target: PTK6 (human) (UniProt Q13882)
# [30] = target: IGF1R (human) (UniProt P08069)
# [31] = target: MET (human) (UniProt P08581)
# [32] = target: PTK2 (human) (UniProt Q05397)
# [33] = target: MAP3K8 (human) (UniProt P41279)
# [34] = target: ERBB2 (human) (UniProt P04626)
# [35] = target: PASK (human) (UniProt Q96RG2)
# Sequence of PASK (human) (Q96RG2 whole entry, looked up): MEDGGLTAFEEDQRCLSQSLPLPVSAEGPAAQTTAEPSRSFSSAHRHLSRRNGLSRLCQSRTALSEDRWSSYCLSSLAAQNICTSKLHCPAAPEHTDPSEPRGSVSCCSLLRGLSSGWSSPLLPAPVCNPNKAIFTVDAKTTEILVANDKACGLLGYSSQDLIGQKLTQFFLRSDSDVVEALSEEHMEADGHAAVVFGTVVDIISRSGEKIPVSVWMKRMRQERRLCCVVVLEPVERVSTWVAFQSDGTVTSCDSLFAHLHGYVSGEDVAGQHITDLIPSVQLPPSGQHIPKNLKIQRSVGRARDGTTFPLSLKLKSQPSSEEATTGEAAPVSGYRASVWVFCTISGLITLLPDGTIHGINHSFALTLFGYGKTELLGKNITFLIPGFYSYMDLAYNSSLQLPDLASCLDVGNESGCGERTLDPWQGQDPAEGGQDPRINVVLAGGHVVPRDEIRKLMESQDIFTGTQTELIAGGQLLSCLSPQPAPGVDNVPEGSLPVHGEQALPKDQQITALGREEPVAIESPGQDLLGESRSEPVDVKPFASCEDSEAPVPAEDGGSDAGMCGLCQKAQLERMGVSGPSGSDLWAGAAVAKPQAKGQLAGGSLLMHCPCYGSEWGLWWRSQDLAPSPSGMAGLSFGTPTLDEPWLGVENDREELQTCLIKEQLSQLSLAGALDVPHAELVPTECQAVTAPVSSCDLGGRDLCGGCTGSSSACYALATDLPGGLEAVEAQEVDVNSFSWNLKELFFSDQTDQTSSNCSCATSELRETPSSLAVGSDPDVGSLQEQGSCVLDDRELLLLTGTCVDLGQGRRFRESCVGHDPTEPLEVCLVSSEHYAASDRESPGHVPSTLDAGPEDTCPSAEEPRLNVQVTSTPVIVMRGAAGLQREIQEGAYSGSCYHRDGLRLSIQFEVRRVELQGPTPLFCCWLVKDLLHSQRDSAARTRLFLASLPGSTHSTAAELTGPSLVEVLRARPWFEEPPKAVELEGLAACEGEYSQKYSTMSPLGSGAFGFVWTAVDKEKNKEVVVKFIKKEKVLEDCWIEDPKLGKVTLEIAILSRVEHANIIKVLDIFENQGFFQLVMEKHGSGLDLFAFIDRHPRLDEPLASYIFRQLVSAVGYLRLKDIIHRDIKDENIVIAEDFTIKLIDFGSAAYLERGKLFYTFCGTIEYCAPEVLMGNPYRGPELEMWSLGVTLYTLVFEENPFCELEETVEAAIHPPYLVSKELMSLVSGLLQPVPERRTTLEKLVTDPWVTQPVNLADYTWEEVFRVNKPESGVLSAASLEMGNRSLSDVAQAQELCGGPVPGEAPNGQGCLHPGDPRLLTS
# [36] = target: ULK1 (human) (UniProt O75385)
# [37] = target: PIM1 (human) (UniProt P11309)
# [38] = target: EPHB4 (human) (UniProt P54760)
# [39] = target: STK25 (human) (UniProt O00506)
# Sequence of STK25 (human) (O00506 whole entry, looked up): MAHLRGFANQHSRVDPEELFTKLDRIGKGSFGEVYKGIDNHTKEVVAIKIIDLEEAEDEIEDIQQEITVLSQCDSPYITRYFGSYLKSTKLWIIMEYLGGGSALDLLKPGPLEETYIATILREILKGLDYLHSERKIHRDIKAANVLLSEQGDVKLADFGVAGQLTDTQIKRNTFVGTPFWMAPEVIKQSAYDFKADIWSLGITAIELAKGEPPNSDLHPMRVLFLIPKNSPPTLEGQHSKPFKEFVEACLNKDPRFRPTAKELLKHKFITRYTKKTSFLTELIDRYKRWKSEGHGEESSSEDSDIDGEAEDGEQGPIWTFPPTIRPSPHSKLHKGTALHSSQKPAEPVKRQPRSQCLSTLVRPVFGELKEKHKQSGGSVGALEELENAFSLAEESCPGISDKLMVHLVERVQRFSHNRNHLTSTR
# [40] = target: RPS6KA4 KD2 (human) (UniProt O75676)
# Sequence of RPS6KA4 KD2 (human) (O75676 whole entry, looked up): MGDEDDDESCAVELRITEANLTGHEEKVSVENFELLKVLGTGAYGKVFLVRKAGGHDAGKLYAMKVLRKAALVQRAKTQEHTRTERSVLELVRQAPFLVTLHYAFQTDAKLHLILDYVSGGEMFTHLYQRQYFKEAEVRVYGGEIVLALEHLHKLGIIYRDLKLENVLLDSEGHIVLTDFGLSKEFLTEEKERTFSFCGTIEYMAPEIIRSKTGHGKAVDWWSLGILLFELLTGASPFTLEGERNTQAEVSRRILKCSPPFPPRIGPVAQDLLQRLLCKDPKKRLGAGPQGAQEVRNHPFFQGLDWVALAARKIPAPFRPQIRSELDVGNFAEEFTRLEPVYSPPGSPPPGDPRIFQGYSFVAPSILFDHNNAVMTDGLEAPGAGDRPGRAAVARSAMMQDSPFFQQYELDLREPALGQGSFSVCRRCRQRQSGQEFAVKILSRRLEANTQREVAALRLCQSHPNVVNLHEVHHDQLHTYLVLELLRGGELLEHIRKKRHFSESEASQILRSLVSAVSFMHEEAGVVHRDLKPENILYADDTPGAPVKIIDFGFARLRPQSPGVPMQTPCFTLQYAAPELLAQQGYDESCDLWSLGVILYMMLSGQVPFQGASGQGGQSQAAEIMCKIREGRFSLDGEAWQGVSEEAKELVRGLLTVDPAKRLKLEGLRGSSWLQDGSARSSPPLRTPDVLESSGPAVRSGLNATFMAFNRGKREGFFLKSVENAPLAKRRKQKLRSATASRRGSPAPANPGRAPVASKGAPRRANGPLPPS
# [41] = target: RPS6KA5 KD2 (human) (UniProt O75582)
# [42] = target: RPS6KA6 KD1 KD2 (human) (UniProt Q9UK32)
# Sequence of RPS6KA6 KD1 KD2 (human) (Q9UK32 whole entry, looked up): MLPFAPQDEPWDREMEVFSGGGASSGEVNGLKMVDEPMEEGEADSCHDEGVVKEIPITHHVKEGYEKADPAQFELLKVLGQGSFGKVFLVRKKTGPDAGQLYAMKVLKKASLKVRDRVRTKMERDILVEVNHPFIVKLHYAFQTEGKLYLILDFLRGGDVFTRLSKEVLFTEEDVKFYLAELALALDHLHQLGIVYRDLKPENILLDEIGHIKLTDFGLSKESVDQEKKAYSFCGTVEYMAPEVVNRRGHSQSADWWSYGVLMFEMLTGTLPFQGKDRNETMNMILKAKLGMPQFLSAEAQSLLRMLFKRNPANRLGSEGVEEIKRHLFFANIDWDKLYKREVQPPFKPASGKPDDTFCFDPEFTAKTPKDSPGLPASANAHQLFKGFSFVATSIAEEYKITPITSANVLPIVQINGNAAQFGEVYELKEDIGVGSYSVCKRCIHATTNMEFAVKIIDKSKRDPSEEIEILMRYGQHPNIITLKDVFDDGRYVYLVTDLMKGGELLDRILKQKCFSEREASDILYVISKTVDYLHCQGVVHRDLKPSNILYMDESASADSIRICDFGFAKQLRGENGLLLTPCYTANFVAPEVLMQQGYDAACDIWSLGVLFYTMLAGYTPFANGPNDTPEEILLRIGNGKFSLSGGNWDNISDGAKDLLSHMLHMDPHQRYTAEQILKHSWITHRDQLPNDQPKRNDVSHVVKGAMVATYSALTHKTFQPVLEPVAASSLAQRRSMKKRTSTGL
# Sequence of ADRBK1 (human) (P25098 whole entry, looked up): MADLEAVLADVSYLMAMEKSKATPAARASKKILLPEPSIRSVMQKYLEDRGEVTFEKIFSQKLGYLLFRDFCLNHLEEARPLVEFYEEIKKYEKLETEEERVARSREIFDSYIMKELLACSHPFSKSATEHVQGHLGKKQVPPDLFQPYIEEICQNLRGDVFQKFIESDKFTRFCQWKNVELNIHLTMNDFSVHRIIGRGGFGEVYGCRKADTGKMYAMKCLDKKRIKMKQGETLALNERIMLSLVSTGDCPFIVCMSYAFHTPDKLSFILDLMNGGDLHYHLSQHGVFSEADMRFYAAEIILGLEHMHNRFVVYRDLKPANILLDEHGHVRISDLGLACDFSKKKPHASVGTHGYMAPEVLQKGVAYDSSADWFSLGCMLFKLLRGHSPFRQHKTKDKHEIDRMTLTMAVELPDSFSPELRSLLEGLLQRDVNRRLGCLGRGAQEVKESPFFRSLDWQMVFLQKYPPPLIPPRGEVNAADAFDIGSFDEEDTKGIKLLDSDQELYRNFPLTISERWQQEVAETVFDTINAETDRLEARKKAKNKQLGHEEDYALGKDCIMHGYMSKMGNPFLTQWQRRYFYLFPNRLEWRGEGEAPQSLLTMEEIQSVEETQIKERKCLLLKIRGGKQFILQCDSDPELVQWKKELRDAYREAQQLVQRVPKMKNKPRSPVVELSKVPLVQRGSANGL
smiles,measurement,setting,value
CN(C)c1ccc(/C=C2\C(=O)Nc3ccccc32)cc1,residual activity,[1],82.9%
same,residual activity,[2],101%
same,residual activity,[3],94.9%
same,residual activity,[4],103%
same,residual activity,[5],106%
same,residual activity,[6],78.4%
same,residual activity,[7],99.2%
same,residual activity,[8],94.1%
same,residual activity,[9],104%
same,residual activity,[10],96.8%
same,residual activity,[11],92.6%
same,residual activity,[12],93.4%
same,residual activity,[13],96.6%
same,residual activity,[14],94.7%
same,residual activity,[15],106%
same,residual activity,[16],84.5%
same,residual activity,[17],104%
same,residual activity,[18],100%
same,residual activity,[19],94.3%
same,residual activity,[20],103%
same,residual activity,[21],96.6%
same,residual activity,[22],78%
same,residual activity,[23],61.4%
same,residual activity,[24],99.1%
same,residual activity,[25],89.3%
same,residual activity,[26],95.4%
same,residual activity,[27],100%
same,residual activity,[28],97.1%
same,residual activity,[29],98.8%
same,residual activity,[30],101%
same,residual activity,[31],101%
same,residual activity,[32],104%
same,residual activity,[33],99.6%
same,residual activity,[34],91%
same,residual activity,[35],95%
same,residual activity,[36],91.9%
same,residual activity,[37],101%
same,residual activity,[38],97.4%
same,residual activity,[39],90.2%
same,residual activity,[40],95.2%
same,residual activity,[41],98.7%
same,residual activity,[42],93.9%
CCCCc1c(-c2ccc(OC)cc2)[nH]c2nccnc12,residual activity,[1],97.2%
same,residual activity,[2],78.5%
same,residual activity,[3],99.8%
same,residual activity,[4],102%
same,residual activity,[5],90.2%
same,residual activity,[6],89.8%
same,residual activity,[7],88.5%
same,residual activity,[8],73.2%
same,residual activity,[9],163%
same,residual activity,[10],94.4%
same,residual activity,[11],102%
same,residual activity,[12],97.3%
same,residual activity,[13],109%
same,residual activity,[14],87%
same,residual activity,[15],100%
same,residual activity,[16],63.8%
same,residual activity,[17],107%
same,residual activity,[18],90.6%
same,residual activity,[19],88.8%
same,residual activity,[20],106%
same,residual activity,[21],82.7%
same,residual activity,[22],56.3%
same,residual activity,[23],64.5%
same,residual activity,[24],98%
same,residual activity,[25],45.7%
same,residual activity,[26],100%
same,residual activity,[27],98.6%
same,residual activity,[28],42.1%
same,residual activity,[29],30.4%
same,residual activity,[30],83.9%
same,residual activity,[31],86.8%
same,residual activity,[32],81.7%
same,residual activity,[33],98.2%
same,residual activity,[34],96.4%
same,residual activity,[35],97.6%
same,residual activity,[36],87.9%
same,residual activity,[37],97%
same,residual activity,[38],89.5%
same,residual activity,[39],90.3%
same,residual activity,[40],89.4%
same,residual activity,[41],104%
same,residual activity,[42],78.2%
